Earlier results in patent US20080254117A1, “PROCESS FOR PREPARING PRAMIPEXOLE DIHYDROCHLORIDE TABLETS” (priority 2007, published 2008).
Counter-ions that a name gives are not always drawn.

Key:
[1] = not given; remark: listed apart in the source

Row | Structure (SMILES) | solubility in buffer media (between pH 2 and pH 7.4) | Water solubility (water) | light sensitivity in solution ([1]; in solution) | stability in the solid state ([1]; solid state)
1 | CCCN[C@H]1CCc2nc(N)sc2C1 [Pramipexole dihydrochloride monohydrate, pramipexole dihydrochloride monohydrate] | above 10 mg/mL | more than 20 mg/mL | – | –
2 | CCCN[C@H]1CCc2nc(N)sc2C1 [Pramipexole, (S)-2-amino-4,5,6,7-tetrahydro-6-(propylamino)benzothiazole] | – | – | light sensitive | very stable in the solid state
